Test results taken from ChEMBL document CHEMBL4507304, “Data for DCP probe TP-021” (2021).

How the values were obtained:
[1] = target: Mitogen-activated protein kinase 6 (Homo sapiens) (UniProt Q16659); details: Compound concentration 1000.0 nM
[2] = target: MAP kinase-interacting serine/threonine-protein kinase 1 (Homo sapiens) (UniProt Q9BUB5); details: Compound concentration 1000.0 nM
[3] = target: Mitogen-activated protein kinase 15 (Homo sapiens) (UniProt Q8TD08); details: Compound concentration 1000.0 nM
[4] = target: Ephrin type-B receptor 2 (Homo sapiens) (UniProt P29323); details: Compound concentration 1000.0 nM
[5] = target: Myotonin-protein kinase (Homo sapiens) (UniProt Q09013); details: Compound concentration 1000.0 nM
[6] = target: Mu-type opioid receptor (Homo sapiens) (UniProt P35372); details: Compound concentration 10.0 uM
[7] = target: Hepatocyte growth factor receptor (Homo sapiens) (UniProt P08581); details: Compound concentration 1000.0 nM
[8] = target: GABA-A receptor; anion channel (Rattus norvegicus) (UniProt O09028+P15431+P18506+P18508+P19969+P20236+P23574+P23576+P28471+P28473+P30191+P62813+P63079+P63138+Q91ZM7+Q9ES14); details: Compound concentration 10.0 uM
[9] = test system: Receptor-type tyrosine-protein kinase FLT3 (Homo sapiens), P36888 [UNDEFINED MUTATION]; details: Compound concentration 1000.0 nM
[10] = target: Phosphatidylinositol 5-phosphate 4-kinase type-2 beta (Homo sapiens) (UniProt P78356); details: Compound concentration 1000.0 nM
[11] = target: Tyrosine-protein kinase HCK (Homo sapiens) (UniProt P08631); details: Compound concentration 1000.0 nM
[12] = target: Serine/threonine-protein kinase ULK3 (Homo sapiens) (UniProt Q6PHR2); details: Compound concentration 1000.0 nM
[13] = target: Cyclin-dependent kinase-like 1 (Homo sapiens) (UniProt Q00532); details: Compound concentration 1000.0 nM
[14] = test system: Tyrosine-protein kinase ABL1 (Homo sapiens), P00519 [F317L]; details: Compound concentration 1000.0 nM
[15] = target: Mitogen-activated protein kinase kinase kinase 13 (Homo sapiens) (UniProt O43283); details: Compound concentration 1000.0 nM
[16] = target: Serine/threonine-protein kinase D3 (Homo sapiens) (UniProt O94806); details: Compound concentration 1000.0 nM
[17] = target: Wee1-like protein kinase (Homo sapiens) (UniProt P30291); details: Compound concentration 1000.0 nM
[18] = target: Macrophage-stimulating protein receptor (Homo sapiens) (UniProt Q04912); details: Compound concentration 1000.0 nM
[19] = target: Cyclin-dependent kinase 7 (Homo sapiens) (UniProt P50613); details: Compound concentration 1000.0 nM
[20] = target: Mitogen-activated protein kinase 1 (Homo sapiens) (UniProt P28482); details: Compound concentration 1000.0 nM
[21] = target: Peripheral plasma membrane protein CASK (Homo sapiens) (UniProt O14936); details: Compound concentration 1000.0 nM
[22] = target: Dual specificity mitogen-activated protein kinase kinase 2 (Homo sapiens) (UniProt P36507); details: Compound concentration 1000.0 nM
[23] = target: Calcium/calmodulin-dependent protein kinase type 1D (Homo sapiens) (UniProt Q8IU85); details: Compound concentration 1000.0 nM
[24] = target: Serine/threonine-protein kinase 38 (Homo sapiens) (UniProt Q15208); details: Compound concentration 1000.0 nM
[25] = target: Leukocyte tyrosine kinase receptor (Homo sapiens) (UniProt P29376); details: Compound concentration 1000.0 nM
[26] = target: Serine/threonine-protein kinase Sgk3 (Homo sapiens) (UniProt Q96BR1); details: Compound concentration 1000.0 nM
[27] = target: Serine/threonine-protein kinase RIO1 (Homo sapiens) (UniProt Q9BRS2); details: Compound concentration 1000.0 nM
[28] = target: Myosin-IIIa (Homo sapiens) (UniProt Q8NEV4); details: Compound concentration 1000.0 nM
[29] = target: Alpha-2A adrenergic receptor (Homo sapiens) (UniProt P08913); details: Compound concentration 10.0 uM
[30] = target: Sigma intracellular receptor 2 (Homo sapiens) (UniProt Q5BJF2); details: Compound concentration 10.0 uM
[31] = target: Cyclin-dependent kinase 4 (Homo sapiens) (UniProt P11802); details: Compound concentration 1000.0 nM
[32] = target: AP2-associated protein kinase 1 (Homo sapiens) (UniProt Q2M2I8); details: Compound concentration 1000.0 nM
[33] = target: Mitogen-activated protein kinase kinase kinase kinase 3 (Homo sapiens) (UniProt Q8IVH8); details: Compound concentration 1000.0 nM
[34] = target: Serine/threonine-protein kinase 17B (Homo sapiens) (UniProt O94768); details: Compound concentration 1000.0 nM
[35] = target: Fibroblast growth factor receptor 4 (Homo sapiens) (UniProt P22455); details: Compound concentration 1000.0 nM
[36] = target: Phosphatidylinositol 4-phosphate 3-kinase C2 domain-containing subunit beta (Homo sapiens) (UniProt O00750); details: Compound concentration 1000.0 nM
[37] = test system: Proto-oncogene tyrosine-protein kinase receptor Ret (Homo sapiens), P07949 [V804L]; details: Compound concentration 1000.0 nM
[38] = test system: Phosphatidylinositol 4,5-bisphosphate 3-kinase catalytic subunit alpha isoform (Homo sapiens), P42336 [H1047Y]; details: Compound concentration 1000.0 nM
[39] = target: RAC-beta serine/threonine-protein kinase (Homo sapiens) (UniProt P31751); details: Compound concentration 1000.0 nM
[40] = target: Casein kinase I isoform gamma-1 (Homo sapiens) (UniProt Q9HCP0); details: Compound concentration 1000.0 nM
[41] = target: Activin receptor type-1B (Homo sapiens) (UniProt P36896); details: Compound concentration 1000.0 nM
[42] = target: Tyrosine-protein kinase Fer (Homo sapiens) (UniProt P16591); details: Compound concentration 1000.0 nM
[43] = target: Proto-oncogene tyrosine-protein kinase Src (Homo sapiens) (UniProt P12931); details: Compound concentration 1000.0 nM
[44] = target: Cyclin-dependent kinase 16 (Homo sapiens) (UniProt Q00536); details: Compound concentration 1000.0 nM

Serine/threonine-protein kinase RIO1 (Homo sapiens), sequence (Q9BRS2 whole entry): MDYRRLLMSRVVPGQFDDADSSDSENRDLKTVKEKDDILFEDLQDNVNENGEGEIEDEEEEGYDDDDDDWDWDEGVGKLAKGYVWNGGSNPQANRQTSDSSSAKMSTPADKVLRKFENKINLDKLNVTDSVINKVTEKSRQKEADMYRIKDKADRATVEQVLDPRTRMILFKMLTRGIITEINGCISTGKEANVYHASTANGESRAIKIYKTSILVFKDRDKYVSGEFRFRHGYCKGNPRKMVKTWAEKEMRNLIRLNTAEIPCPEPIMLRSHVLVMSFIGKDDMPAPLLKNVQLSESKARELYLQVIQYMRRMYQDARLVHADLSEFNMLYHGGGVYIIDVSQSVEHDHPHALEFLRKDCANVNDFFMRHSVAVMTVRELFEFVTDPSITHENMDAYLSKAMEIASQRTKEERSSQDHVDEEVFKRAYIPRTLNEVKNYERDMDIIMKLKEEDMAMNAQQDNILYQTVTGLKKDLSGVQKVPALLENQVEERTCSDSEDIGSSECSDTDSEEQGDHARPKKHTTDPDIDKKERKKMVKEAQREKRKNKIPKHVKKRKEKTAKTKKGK
Hepatocyte growth factor receptor (Homo sapiens), sequence (P08581 whole entry): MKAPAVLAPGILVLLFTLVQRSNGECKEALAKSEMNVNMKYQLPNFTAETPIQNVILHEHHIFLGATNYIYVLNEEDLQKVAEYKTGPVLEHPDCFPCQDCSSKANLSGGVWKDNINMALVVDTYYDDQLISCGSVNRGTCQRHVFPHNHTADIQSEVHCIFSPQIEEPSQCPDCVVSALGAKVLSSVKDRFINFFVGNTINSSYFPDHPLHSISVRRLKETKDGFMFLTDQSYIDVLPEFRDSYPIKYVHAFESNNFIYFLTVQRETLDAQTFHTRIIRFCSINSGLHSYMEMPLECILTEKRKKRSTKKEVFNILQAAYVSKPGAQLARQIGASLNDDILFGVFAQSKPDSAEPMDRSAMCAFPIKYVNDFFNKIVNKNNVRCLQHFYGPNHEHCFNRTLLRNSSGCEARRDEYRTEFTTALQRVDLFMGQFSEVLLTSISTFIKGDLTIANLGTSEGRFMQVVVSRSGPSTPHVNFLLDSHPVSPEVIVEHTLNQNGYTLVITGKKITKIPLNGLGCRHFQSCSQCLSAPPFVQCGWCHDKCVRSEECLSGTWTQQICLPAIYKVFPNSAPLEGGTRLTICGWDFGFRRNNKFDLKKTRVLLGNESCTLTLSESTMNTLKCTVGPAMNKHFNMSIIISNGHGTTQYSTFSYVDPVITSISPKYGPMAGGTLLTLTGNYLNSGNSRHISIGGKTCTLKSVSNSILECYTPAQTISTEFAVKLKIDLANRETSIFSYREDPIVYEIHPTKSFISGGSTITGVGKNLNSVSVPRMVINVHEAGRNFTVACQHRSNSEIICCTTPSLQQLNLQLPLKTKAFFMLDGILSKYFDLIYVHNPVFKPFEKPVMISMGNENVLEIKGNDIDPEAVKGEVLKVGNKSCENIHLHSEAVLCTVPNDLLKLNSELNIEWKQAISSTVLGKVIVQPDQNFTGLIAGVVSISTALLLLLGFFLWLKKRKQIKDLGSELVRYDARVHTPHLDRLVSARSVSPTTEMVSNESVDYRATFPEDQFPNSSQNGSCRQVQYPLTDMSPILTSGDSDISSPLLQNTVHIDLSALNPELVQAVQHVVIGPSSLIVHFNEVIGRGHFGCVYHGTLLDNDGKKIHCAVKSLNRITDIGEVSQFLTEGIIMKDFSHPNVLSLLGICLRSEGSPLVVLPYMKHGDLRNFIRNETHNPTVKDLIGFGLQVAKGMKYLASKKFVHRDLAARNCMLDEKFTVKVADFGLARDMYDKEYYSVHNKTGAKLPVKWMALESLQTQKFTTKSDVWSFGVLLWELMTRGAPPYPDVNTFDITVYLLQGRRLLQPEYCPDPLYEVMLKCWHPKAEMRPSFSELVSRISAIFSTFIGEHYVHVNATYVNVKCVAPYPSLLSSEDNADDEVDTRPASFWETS
Serine/threonine-protein kinase Sgk3 (Homo sapiens), sequence (Q96BR1 whole entry): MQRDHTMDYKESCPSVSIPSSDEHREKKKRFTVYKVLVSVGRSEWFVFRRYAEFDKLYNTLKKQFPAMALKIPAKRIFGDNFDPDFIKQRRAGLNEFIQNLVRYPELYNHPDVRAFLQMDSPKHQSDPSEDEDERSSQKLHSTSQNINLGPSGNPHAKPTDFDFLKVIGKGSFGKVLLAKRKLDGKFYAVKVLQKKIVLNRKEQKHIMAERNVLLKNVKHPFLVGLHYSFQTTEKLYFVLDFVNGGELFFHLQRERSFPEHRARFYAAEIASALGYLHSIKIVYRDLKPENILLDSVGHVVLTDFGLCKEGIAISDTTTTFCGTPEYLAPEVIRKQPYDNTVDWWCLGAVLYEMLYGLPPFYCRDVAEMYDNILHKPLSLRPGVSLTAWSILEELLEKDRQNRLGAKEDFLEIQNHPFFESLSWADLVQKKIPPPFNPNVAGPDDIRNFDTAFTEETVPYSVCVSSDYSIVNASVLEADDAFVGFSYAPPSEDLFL
Macrophage-stimulating protein receptor (Homo sapiens), sequence (Q04912 25-304 limits assumed): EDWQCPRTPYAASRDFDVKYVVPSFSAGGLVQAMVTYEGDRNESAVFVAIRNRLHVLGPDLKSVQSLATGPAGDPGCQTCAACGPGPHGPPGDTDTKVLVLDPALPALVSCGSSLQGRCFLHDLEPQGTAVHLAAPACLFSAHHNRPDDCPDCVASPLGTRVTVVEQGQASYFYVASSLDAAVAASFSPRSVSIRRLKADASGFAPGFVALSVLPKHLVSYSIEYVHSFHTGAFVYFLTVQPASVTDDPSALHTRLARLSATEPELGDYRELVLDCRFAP
Macrophage-stimulating protein receptor (Homo sapiens), sequence (Q04912 310-1400 limits assumed): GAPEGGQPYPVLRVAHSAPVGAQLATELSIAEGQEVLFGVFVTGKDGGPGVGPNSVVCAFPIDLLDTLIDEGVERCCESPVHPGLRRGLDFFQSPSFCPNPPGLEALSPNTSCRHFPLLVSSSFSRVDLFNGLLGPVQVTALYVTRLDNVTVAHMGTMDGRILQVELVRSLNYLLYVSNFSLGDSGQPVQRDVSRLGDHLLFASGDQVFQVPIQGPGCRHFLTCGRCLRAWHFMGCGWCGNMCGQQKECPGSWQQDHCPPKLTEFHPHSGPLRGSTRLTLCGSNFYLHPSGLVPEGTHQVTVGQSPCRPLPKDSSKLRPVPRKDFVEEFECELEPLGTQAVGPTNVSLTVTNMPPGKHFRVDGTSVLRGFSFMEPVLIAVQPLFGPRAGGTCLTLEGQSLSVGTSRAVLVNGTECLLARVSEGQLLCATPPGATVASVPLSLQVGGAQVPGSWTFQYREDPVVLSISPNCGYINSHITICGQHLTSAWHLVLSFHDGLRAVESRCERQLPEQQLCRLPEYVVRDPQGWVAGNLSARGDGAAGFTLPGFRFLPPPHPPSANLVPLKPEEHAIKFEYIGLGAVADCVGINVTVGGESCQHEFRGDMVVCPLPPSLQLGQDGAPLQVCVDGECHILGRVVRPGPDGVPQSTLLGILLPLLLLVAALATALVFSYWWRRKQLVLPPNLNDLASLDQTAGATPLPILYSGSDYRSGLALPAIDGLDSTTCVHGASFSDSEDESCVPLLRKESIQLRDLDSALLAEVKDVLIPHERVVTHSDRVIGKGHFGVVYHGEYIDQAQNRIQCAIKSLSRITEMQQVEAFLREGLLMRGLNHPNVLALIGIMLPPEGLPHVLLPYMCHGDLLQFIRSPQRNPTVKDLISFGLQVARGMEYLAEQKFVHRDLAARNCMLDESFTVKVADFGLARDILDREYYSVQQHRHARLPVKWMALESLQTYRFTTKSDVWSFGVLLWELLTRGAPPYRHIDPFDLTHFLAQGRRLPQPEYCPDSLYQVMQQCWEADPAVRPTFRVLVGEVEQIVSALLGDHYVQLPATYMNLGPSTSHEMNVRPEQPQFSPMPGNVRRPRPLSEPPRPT
Cyclin-dependent kinase 7 (Homo sapiens), sequence (P50613 whole entry): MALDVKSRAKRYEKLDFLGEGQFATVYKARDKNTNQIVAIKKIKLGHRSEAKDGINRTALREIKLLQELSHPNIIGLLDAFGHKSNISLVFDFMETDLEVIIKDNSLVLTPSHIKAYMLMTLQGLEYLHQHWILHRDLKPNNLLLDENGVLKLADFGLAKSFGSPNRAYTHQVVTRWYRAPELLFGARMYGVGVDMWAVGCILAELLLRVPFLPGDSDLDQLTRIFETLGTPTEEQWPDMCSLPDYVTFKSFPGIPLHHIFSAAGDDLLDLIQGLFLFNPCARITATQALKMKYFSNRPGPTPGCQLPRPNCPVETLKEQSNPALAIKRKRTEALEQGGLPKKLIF
Mitogen-activated protein kinase kinase kinase kinase 3 (Homo sapiens), sequence (Q8IVH8 whole entry): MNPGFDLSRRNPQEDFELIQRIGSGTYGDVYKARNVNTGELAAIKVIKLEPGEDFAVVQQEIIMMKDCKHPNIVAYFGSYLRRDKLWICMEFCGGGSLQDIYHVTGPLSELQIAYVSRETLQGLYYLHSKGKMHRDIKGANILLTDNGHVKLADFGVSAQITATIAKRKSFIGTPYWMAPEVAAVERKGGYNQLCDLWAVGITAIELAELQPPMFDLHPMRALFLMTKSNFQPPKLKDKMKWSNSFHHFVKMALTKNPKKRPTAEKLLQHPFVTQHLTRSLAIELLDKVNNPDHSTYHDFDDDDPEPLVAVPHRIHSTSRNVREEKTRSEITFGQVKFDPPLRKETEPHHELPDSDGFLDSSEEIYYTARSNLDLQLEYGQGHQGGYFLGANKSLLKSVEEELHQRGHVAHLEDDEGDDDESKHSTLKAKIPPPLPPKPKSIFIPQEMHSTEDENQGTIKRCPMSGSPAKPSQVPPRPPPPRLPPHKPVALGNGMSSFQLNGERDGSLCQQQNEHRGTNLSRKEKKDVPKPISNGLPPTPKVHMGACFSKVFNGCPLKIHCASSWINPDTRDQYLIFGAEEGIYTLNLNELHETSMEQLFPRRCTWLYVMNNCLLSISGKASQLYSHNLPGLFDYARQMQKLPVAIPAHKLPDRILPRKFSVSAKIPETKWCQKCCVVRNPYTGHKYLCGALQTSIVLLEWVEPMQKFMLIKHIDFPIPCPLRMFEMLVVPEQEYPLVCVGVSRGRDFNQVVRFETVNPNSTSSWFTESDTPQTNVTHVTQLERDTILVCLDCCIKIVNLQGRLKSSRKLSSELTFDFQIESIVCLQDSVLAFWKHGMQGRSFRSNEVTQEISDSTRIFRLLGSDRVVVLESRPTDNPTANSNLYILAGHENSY

N#Cc1ccc(Nc2ccc3[nH]c(=O)[nH]c3c2)c(Cl)c1
inactive: residual activity [1] 100% | residual activity [2] 100% | residual activity [3] 100% | residual activity [4] 70% | residual activity [5] 81% | inhibition [6] 0.37% | residual activity [7] 94% | inhibition [8] 15.5% | residual activity [9] 100% | residual activity [10] 74% | residual activity [11] 100% | residual activity [12] 100% | residual activity [13] 84% | residual activity [14] 84% | residual activity [15] 100% | residual activity [16] 100% | residual activity [17] 87% | residual activity [18] 100% | residual activity [19] 99% | residual activity [20] 100% | residual activity [21] 100% | residual activity [22] 93% | residual activity [23] 92% | residual activity [24] 95% | residual activity [25] 100% | residual activity [26] 100% | residual activity [27] 100% | residual activity [28] 97% | inhibition [29] 2.09% | inhibition [30] -4.12% | residual activity [31] 100% | residual activity [32] 100% | residual activity [33] 88% | residual activity [34] 100% | residual activity [35] 100% | residual activity [36] 99% | residual activity [37] 100% | residual activity [38] 100% | residual activity [39] 89% | residual activity [40] 100% | residual activity [41] 100% | residual activity [42] 100% | residual activity [43] 92% | residual activity [44] 100%

O=C1CCc2cc(Nc3cc(OC4CCOCC4)c([N+](=O)[O-])cc3Cl)ccc2N1
inactive: residual activity [1] 100% | residual activity [2] 100% | residual activity [3] 96% | residual activity [4] 96% | residual activity [5] 96% | inhibition [6] 1.31% | residual activity [7] 80% | inhibition [8] 12.7% | residual activity [9] 89% | residual activity [10] 100% | residual activity [11] 100% | residual activity [12] 100% | residual activity [13] 78% | residual activity [14] 88% | residual activity [15] 91% | residual activity [16] 92% | residual activity [17] 99% | residual activity [18] 100% | residual activity [19] 86% | residual activity [20] 99% | residual activity [21] 100% | residual activity [22] 73% | residual activity [23] 100% | residual activity [24] 88% | residual activity [25] 100% | residual activity [26] 100% | residual activity [27] 100% | residual activity [28] 99% | inhibition [29] 4.66% | inhibition [30] 27.1% | residual activity [31] 81% | residual activity [32] 100% | residual activity [33] 91% | residual activity [34] 100% | residual activity [35] 81% | residual activity [36] 89% | residual activity [37] 91% | residual activity [38] 100% | residual activity [39] 82% | residual activity [40] 97% | residual activity [41] 93% | residual activity [42] 100% | residual activity [43] 100% | residual activity [44] 88%
